The values below come from patent US20240101570A1 (AMGEN INC., priority 2020, published 2024).

Assay [1] concerns HCT116 MTAP null cells. The assay can be described thus: HCT116 MTAP null cell proliferation / viability (CellTiter-Glo, 6 days). It is filed as cell-based. The conditions noted are these: HCT116-MTAP null, 144 h, HCT116 MTAP null cells, 6 days, CellTiter-Glo; read-out: HCT-116 MTAP null IC50. In outline: (§1)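 Viability read by CellTiter-Glo after 6-day compound exposure of MTAP-null and wild-type HCT116 cells grown in RPMI 1640 with 10% FBS. Dosing used 1:3 steps from 1 or 10 μM (8-9 points) or 1:2 steps from 10 or 50 μM (22 points); IC50 taken where fitted curve crosses 50% of control.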
For orientation: Cellular ATP, detected with luciferase, serves as a proxy for viable cell number.

The subject of assay [2] is HCT116 WT cells. The assay can be described thus: HCT116 WT cell proliferation / viability (CellTiter-Glo, 6 days). It is filed as cell-based. The conditions noted are these: Homo sapiens, HCT-116, 144 h, HCT116 WT cells, 6 days, CellTiter-Glo; read-out: HCT-116 WT IC50. In outline:
as §1

Usually IC50 stands for the concentration needed to halve the response being measured.

Take `Nc1nc2ccc(C(=O)N(Cc3ccc(C(F)(F)F)cn3)Cc3ncccn3)cc2c2ccsc12` [Example 636, 4-amino-N-(2-pyrimidinylmethyl)-N-((5-(trifluoromethyl)-2-pyridinyl)methyl)thieno[2,3-c]quinoline-8-carboxamide]: the IC50 in assay [1] came to 149 nM; in assay [2] it was 2990 nM.

As for `CC(C)CN(Cc1ccc(C(F)(F)F)cn1)C(=O)c1ccc2nc(N)c3sccc3c2c1` [Example 637, 4-amino-N-(2-methylpropyl)-N-((5-(trifluoromethyl)-2-pyridinyl)methyl)thieno[2,3-c]quinoline-8-carboxamide], the IC50 in assay [1] is 212 nM; in assay [2] it was 3220 nM.

With `C[C@H](c1ncccn1)N(Cc1ccc(C(F)(F)F)cn1)C(=O)c1ccc2nc(N)c3ncncc3c2c1` [Example 638, 5-amino-N-((1R)-1-(2-pyrimidinyl)ethyl)-N-((5-(trifluoromethyl)-2-pyridinyl)methyl)pyrimido[4,5-c]quinoline-9-carboxamide], the IC50 was determined as 22 nM in assay [1] and 378 nM in assay [2].

In the case of `COC[C@H](C1CC1)N(Cc1ccc(N2CCOCC2)nn1)C(=O)c1ccc2nc(N)c3c(c2c1)COC3` [Example 641, 4-amino-N-((1S)-1-cyclopropyl-2-methoxyethyl)-N-((6-(4-morpholinyl)-3-pyridazinyl)methyl)-1,3-dihydrofuro[3,4-c]quinoline-8-carboxamide], the IC50 in assay [1] was found to be 16 nM; in assay [2] it was 242 nM.

Consider `CCOc1ccc(CN(CC(C)C)C(=O)c2ccc3nc(N)c4c(c3c2)COC4)nn1` [Example 642, 4-amino-N-((6-ethoxy-3-pyridazinyl)methyl)-N-(2-methylpropyl)-1,3-dihydrofuro[3,4-c]quinoline-8-carboxamide], for which the IC50 stood at 41 nM in assay [1] and 1300 nM in assay [2].

As for `COC[C@@H](C)N(Cc1ccc(Br)nn1)C(=O)c1ccc2nc(N)c3sccc3c2c1` [Example 643, 4-amino-N-((6-bromo-3-pyridazinyl)methyl)-N-((2R)-1-methoxy-2-propanyl)thieno[2,3-c]quinoline-8-carboxamide], the IC50 worked out at 178 nM in assay [1] and 1620 nM in assay [2].

Regarding `COCC(C)(C)N(Cc1ccc(Br)nn1)C(=O)c1ccc2nc(N)c3c(c2c1)COC3` [Example 644, 4-amino-N-((6-bromo-3-pyridazinyl)methyl)-N-(1-methoxy-2-methyl-2-propanyl)-1,3-dihydrofuro[3,4-c]quinoline-8-carboxamide], the values for the IC50 in assay [1] and in assay [2] were 2790 nM and over 10000 nM, respectively.

For `COCC(C)(C)N(Cc1ccc(Br)nn1)C(=O)c1cc2c3c(c(N)nc2cn1)COC3` [Example 645, 4-amino-N-((6-bromo-3-pyridazinyl)methyl)-N-(1-methoxy-2-methyl-2-propanyl)-1,3-dihydrofuro[3,4-c][1,7]naphthyridine-8-carboxamide], the figures for the IC50 in assay [1] and in assay [2] were at least 50000 nM and over 50000 nM, respectively.

Regarding `Nc1nc2cnc(C(=O)N(Cc3ccc(C(F)(F)F)cn3)CC3CC3)cc2c2c1COC2` [Example 652, 4-amino-N-(cyclopropylmethyl)-N-((5-(trifluoromethyl)pyridin-2-yl)methyl)-1,3-dihydrofuro[3,4-c][1,7]naphthyridine-8-carboxamide], the IC50 in assay [1] came out at 50 nM; in assay [2], 1390 nM.

Turning to `C[C@H](c1ncccn1)N(Cc1ccc(C(F)(F)F)cn1)C(=O)c1ccc2nc(N)c3c(c2c1)COC3` [Example 653, 4-amino-N-((1R)-1-(2-pyrimidinyl)ethyl)-N-((5-(trifluoromethyl)-2-pyridinyl)methyl)-1,3-dihydrofuro[3,4-c]quinoline-8-carboxamide], the figures for the half-maximal inhibitory concentration (IC50) in assay [1] and in assay [2] were 8 nM and 73 nM, respectively.

Regarding `C[C@H](c1ncccn1)N(Cc1ccc(C(F)(F)F)cn1)C(=O)c1ccc2nc(N)c3c(c2c1)CCCC3` [Example 654, 6-amino-N-((1R)-1-(2-pyrimidinyl)ethyl)-N-((5-(trifluoromethyl)-2-pyridinyl)methyl)-7,8,9,10-tetrahydro-2-phenanthridinecarboxamide], the IC50 came out at 9 nM in assay [1] and 171 nM in assay [2].

Take `C[C@H](c1ncccn1)N(Cc1ccc(C(F)(F)F)cn1)C(=O)c1cc2c3c(c(N)nc2cc1Cl)COC3` [Example 655, 4-amino-7-chloro-N-((1R)-1-(2-pyrimidinyl)ethyl)-N-((5-(trifluoromethyl)-2-pyridinyl)methyl)-1,3-dihydrofuro[3,4-c]quinoline-8-carboxamide]: the half-inhibitory concentration (IC50) stood at 16 nM in assay [1] and 294 nM in assay [2].

Turning to `Nc1nc2cc(Cl)c(C(=O)N(Cc3ccc(C(F)(F)F)cn3)C3CC3)cc2c2c1COC2` [Example 656, 4-amino-7-chloro-N-cyclopropyl-N-((5-(trifluoromethyl)-2-pyridinyl)methyl)-1,3-dihydrofuro[3,4-c]quinoline-8-carboxamide], the IC50 is 19 nM in assay [1] and 1260 nM in assay [2].

As for `C[C@H](c1ncccn1)N(Cc1ccc(Br)nn1)C(=O)c1ccc2nc(N)c3c(c2c1)COC3` [Example 657, 4-amino-N-((6-bromo-3-pyridazinyl)methyl)-N-((1R)-1-(2-pyrimidinyl)ethyl)-1,3-dihydrofuro[3,4-c]quinoline-8-carboxamide], the concentration for half-maximal inhibition (IC50) in assay [1] was 13 nM; in assay [2] it was 196 nM.

Turning to `C[C@H](c1ncccn1)N(Cc1ccc(Br)cn1)C(=O)c1ccc2nc(N)c3c(c2c1)COC3` [Example 658, 4-amino-N-((5-bromo-2-pyridinyl)methyl)-N-((1R)-1-(2-pyrimidinyl)ethyl)-1,3-dihydrofuro[3,4-c]quinoline-8-carboxamide], the IC50 turned out to be 6 nM in assay [1] and 71 nM in assay [2].

As to `C[C@H](c1ncccn1)N(Cc1ccc(C#N)cn1)C(=O)c1ccc2nc(N)c3c(c2c1)COC3` [Example 659, 4-amino-N-((5-cyano-2-pyridinyl)methyl)-N-((1R)-1-(2-pyrimidinyl)ethyl)-1,3-dihydrofuro[3,4-c]quinoline-8-carboxamide], the values for the concentration for half-maximal inhibition (IC50) in assay [1] and in assay [2] were 14 nM and 378 nM, respectively.

With `Nc1nc2ccc(C(=O)N(Cc3ccc(C(F)(F)F)nn3)C3CC(F)(F)C3)cc2c2c1COC2` [Example 660, 4-amino-N-(3,3-difluorocyclobutyl)-N-((6-(trifluoromethyl)-3-pyridazinyl)methyl)-1,3-dihydrofuro[3,4-c]quinoline-8-carboxamide], the IC50 in assay [1] is 354 nM; in assay [2], over 10000 nM.

Regarding `Nc1nc2ccc(C(=O)N(Cc3ccc(C(F)(F)F)nn3)C3CC3)cc2c2c1COC2` [Example 661, 4-amino-N-cyclopropyl-N-((6-(trifluoromethyl)-3-pyridazinyl)methyl)-1,3-dihydrofuro[3,4-c]quinoline-8-carboxamide], the values for the IC50 in assay [1] and in assay [2] were 303 nM and 26200 nM, respectively.

Consider `C[C@H](c1ncn(C)n1)N(Cc1ccc(C(F)F)cn1)C(=O)c1ccc2nc(N)c3c(c2c1)COC3` [Example 662, 4-amino-N-((5-(difluoromethyl)-2-pyridinyl)methyl)-N-((1R)-1-(1-methyl-1H-1,2,4-triazol-3-yl)ethyl)-1,3-dihydrofuro[3,4-c]quinoline-8-carboxamide], for which the results for the IC50 in assay [1] and in assay [2] were 29 nM and 290 nM, respectively.

For the compound `Nc1nc2ccc(C(=O)N(Cc3ccc(OC(F)(F)F)cn3)CC3CC3)cc2c2c1COC2` [Example 663, 4-amino-N-(cyclopropylmethyl)-N-((5-(trifluoromethoxy)-2-pyridinyl)methyl)-1,3-dihydrofuro[3,4-c]quinoline-8-carboxamide], the IC50 came to 35 nM in assay [1] and 1020 nM in assay [2].

As for `CC(C)CN(Cc1ccc(C(F)(F)F)nn1)C(=O)c1ccc2nc(N)c3c(c2c1)COC3` [Example 664, 4-amino-N-(2-methylpropyl)-N-((6-(trifluoromethyl)-3-pyridazinyl)methyl)-1,3-dihydrofuro[3,4-c]quinoline-8-carboxamide], the IC50 in assay [1] turned out to be 38 nM; in assay [2], 1390 nM.

Regarding `CC(C)CN(Cc1ccc(Br)nn1)C(=O)c1ccc2nc(N)c3c(c2c1)COC3` [Example 665, 4-amino-N-((6-bromo-3-pyridazinyl)methyl)-N-(2-methylpropyl)-1,3-dihydrofuro[3,4-c]quinoline-8-carboxamide], the IC50 in assay [1] was found to be 37 nM; in assay [2] it was 1250 nM.

As to `C[C@@H](c1ncccn1)N(Cc1ccc(C#N)cn1)C(=O)c1ccc2nc(N)c3c(c2c1)COC3` [Example 666, 4-amino-N-((5-cyano-2-pyridinyl)methyl)-N-((1S)-1-(2-pyrimidinyl)ethyl)-1,3-dihydrofuro[3,4-c]quinoline-8-carboxamide], the figures for the IC50 in assay [1] and in assay [2] were 687 nM and over 10000 nM, respectively.

Consider `C[C@H](c1ncn(C)n1)N(Cc1ccc(C(F)F)cn1)C(=O)c1cc2c3c(c(N)nc2cn1)COC3` [Example 667, 4-amino-N-((5-(difluoromethyl)-2-pyridinyl)methyl)-N-((1R)-1-(1-methyl-1H-1,2,4-triazol-3-yl)ethyl)-1,3-dihydrofuro[3,4-c][1,7]naphthyridine-8-carboxamide], for which the values for the IC50 in assay [1] and in assay [2] were 929 nM and 7130 nM, respectively.

With `Nc1nc2cnc(C(=O)N(Cc3ccc(C(F)(F)F)nn3)C3CC(F)(F)C3)cc2c2c1COC2` [Example 668, 4-amino-N-(3,3-difluorocyclobutyl)-N-((6-(trifluoromethyl)-3-pyridazinyl)methyl)-1,3-dihydrofuro[3,4-c][1,7]naphthyridine-8-carboxamide], the 50% inhibitory concentration (IC50) in assay [1] was 304 nM; in assay [2], over 10000 nM.

Regarding `Nc1nc2ccc(C(=O)N(Cc3ccc(C(F)(F)F)nn3)C3CCC3)cc2c2c1COC2` [Example 669, 4-amino-N-cyclobutyl-N-((6-(trifluoromethyl)-3-pyridazinyl)methyl)-1,3-dihydrofuro[3,4-c]quinoline-8-carboxamide], the IC50 in assay [1] turned out to be 73 nM; in assay [2], 3070 nM.
